Assay results published in PMC8398262, “New Sulfanilamide Derivatives Incorporating Heterocyclic Carboxamide Moieties as Carbonic Anhydrase Inhibitors” (Pharmaceuticals, 2021).

What was measured:
hCA XII = molecular target: T1, hCA XII (Homo sapiens, UniProt O43570); test: stopped-flow CO2 hydrase assay, hCA XII; format: biochemical; settings: mean from 3 different assays, errors ±5–10%
T1 construct: made in house
Experimental: (§1) For each inhibitor, at least six traces of the initial 5–10% of the reaction were used for determining the initial velocity. The uncatalyzed rates were determined in the same manner and subtracted from the total observed rates. Stock solutions of the inhibitor (0.1 mM) were prepared in distilled–deionized water and dilutions up to 0.01 nM were done thereafter with the assay buffer. Inhibitor and enzyme solutions were preincubated together for 15 min at room temperature prior to the assay, allowing the formation of the E–I complex.

hCA IX = molecular target: T2, hCA IX (Homo sapiens, UniProt Q16790); test: stopped-flow CO2 hydrase assay, hCA IX; format: biochemical; settings: mean from 3 different assays, errors ±5–10%
T2 construct: made in house
Experimental: as §1

hCA II = molecular target: T3, hCA II (Homo sapiens, UniProt P00918); test: stopped-flow CO2 hydrase assay, hCA II; format: biochemical; settings: for Ki: stopped-flow CO2 hydrase assay, mean from 3 different assays, errors ±5–10%
T3 construct: made in house
Experimental: as §1

hCA I = molecular target: T4, hCA I (Homo sapiens, UniProt P00915); test: stopped-flow CO2 hydrase assay, hCA I; format: biochemical; settings: mean from 3 different assays, errors ±5–10%
T4 construct: made in house
T4 sequence (P00915 whole entry): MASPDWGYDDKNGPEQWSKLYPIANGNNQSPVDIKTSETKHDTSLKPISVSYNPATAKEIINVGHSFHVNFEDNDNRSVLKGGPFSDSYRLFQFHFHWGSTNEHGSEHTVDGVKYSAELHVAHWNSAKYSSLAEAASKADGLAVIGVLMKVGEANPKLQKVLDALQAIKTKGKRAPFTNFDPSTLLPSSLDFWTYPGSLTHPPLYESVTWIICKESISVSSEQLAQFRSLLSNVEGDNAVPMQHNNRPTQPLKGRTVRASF
Experimental: as §1

T1 sequence (O43570 25-354): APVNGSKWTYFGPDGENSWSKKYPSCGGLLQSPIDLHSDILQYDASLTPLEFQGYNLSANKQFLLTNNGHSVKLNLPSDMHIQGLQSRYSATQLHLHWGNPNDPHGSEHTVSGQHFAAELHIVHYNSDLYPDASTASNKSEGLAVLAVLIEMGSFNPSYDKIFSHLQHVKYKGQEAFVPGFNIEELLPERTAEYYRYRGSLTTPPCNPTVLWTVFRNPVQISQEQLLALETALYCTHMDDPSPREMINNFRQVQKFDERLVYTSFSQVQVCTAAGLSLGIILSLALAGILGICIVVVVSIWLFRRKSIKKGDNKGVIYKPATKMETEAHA

| SMILES | Ki (hCA XII) [nM] | melting point [°C] | Ki (hCA IX) [nM] | Ki (hCA II) [nM] | Ki (hCA I) [nM] | selectivity index (SI) towards hCA I (hCA II; selectivity for hCA II over hCA I) | selectivity index (SI) compared to hCA IX (hCA II; selectivity for hCA II over hCA IX) | selectivity index (SI) to hCA XII (hCA II; selectivity for hCA II over hCA XII) |
| --- | --- | --- | --- | --- | --- | --- | --- | --- |
| Cn1c(C(=O)Nc2ccc(S(N)(=O)=O)cc2)cc2occc21 [Compound 7a, N-[4-(aminosulfonyl)phenyl]-4-methyl-4H-furo[3,2-b]pyrrole-5-carboxamide] | 6.9 | 273 to 275 | 103 | 8.4 | 718 |  |  |  |
| NS(=O)(=O)c1ccc(NC(=O)c2cc3occc3n2Cc2ccccc2)cc1 [Compound 7c, N-[4-(aminosulfonyl)phenyl]-4-benzyl-4H-furo[3,2-b]pyrrole-5-carboxamide] | 4.6 | 240 to 241 | 276 | 37.5 | 3560 |  |  |  |
| NS(=O)(=O)c1ccc(NC(=O)c2cc3occc3n2Cc2ccccc2F)cc1 [Compound 7d, N-[4-(aminosulfonyl)phenyl]-4-(2-fluorobenzyl)-4H-furo[3,2-b]pyrrole-5-carboxamide] |  | 240 to 242 |  |  |  |  |  |  |
| NS(=O)(=O)c1ccc(NC(=O)c2cc3occc3n2Cc2ccccc2Cl)cc1 [Compound 7e, N-[4-(aminosulfonyl)phenyl]-4-(2-chlorobenzyl)-4H-furo[3,2-b]pyrrole-5-carboxamide] | 19.6 | 239 to 241 | 239 | 23.8 | 858 |  |  |  |
| NS(=O)(=O)c1ccc(NC(=O)c2cc3occc3n2Cc2ccc(Cl)cc2)cc1 [Compound 7f, N-[4-(aminosulfonyl)phenyl]-4-(4-chlorobenzyl)-4H-furo[3,2-b]pyrrole-5-carboxamide] | 37.2 | 237 to 238 | 187 | 34.3 | 878 |  |  |  |
| Cn1c(C(=O)Nc2ccc(S(N)(=O)=O)cc2)cc2sccc21 [Compound 8a, N-[4-(aminosulfonyl)phenyl]-4-methyl-4H-thieno[3,2-b]pyrrole-5-carboxamide] | 30.7 | 276 to 278 | 66.6 | 8.8 | 665 | 75.5 | 7.6 | 3.5 |
| CCn1c(C(=O)Nc2ccc(S(N)(=O)=O)cc2)cc2sccc21 [Compound 8b, N-[4-(aminosulfonyl)phenyl]-4-ethyl-4H-thieno[3,2-b]pyrrole-5-carboxamide] | 5.1 | 248 to 249 | 251 | 6.8 | 270 |  |  |  |
| NS(=O)(=O)c1ccc(NC(=O)c2cc3sccc3n2Cc2ccccc2)cc1 [Compound 8c, N-[4-(aminosulfonyl)phenyl]-4-benzyl-4H-thieno[3,2-b]pyrrole-5-carboxamide] | 7.8 | 255 to 256 | 140 | 8.9 | 400 |  |  |  |
| NS(=O)(=O)c1ccc(NC(=O)c2cc3sccc3n2Cc2ccccc2F)cc1 [Compound 8d, N-[4-(aminosulfonyl)phenyl]-4-(2-fluorobenzyl)-4H-thieno[3,2-b]pyrrole-5-carboxamide] | 8.2 | 235 to 237 | 171 | 8.7 | 656 |  |  |  |
| NS(=O)(=O)c1ccc(NC(=O)c2cc3sccc3n2Cc2ccc(Cl)cc2)cc1 [Compound 8f, N-[4-(aminosulfonyl)phenyl]-4-(4-chlorobenzyl)-4H-thieno[3,2-b]pyrrole-5-carboxamide] | 8.9 | 219 to 220 | 81.4 | 68.1 | 699 |  |  |  |
| CC1(C(=O)Nc2ccc(S(N)(=O)=O)cc2)Oc2ccccc2NC1=O (stereo not shown) [Compound 11, N-[4-(aminosulfonyl)phenyl]-2-methyl-3-oxo-3,4-dihydro-2H-1,4-benzoxazine-2-carboxamide] | 5.3 | 269 to 270 | 260 | 6.5 | 70.6 |  |  |  |
| NS(=O)(=O)c1ccc(NC(=O)C2=C(c3ccccc3)SCCO2)cc1 [Compound 14a, N-[4-(aminosulfonyl)phenyl]-3-phenyl-5,6-dihydro-1,4-oxathiine-2-carboxamide] | 6.1 |  | 281 | 6.7 | 56.5 |  |  |  |
| NS(=O)(=O)c1ccc(CCNC(=O)C2=C(c3ccccc3)SCCO2)cc1 [Compound 14b, N-{2-[4-(aminosulfonyl)phenyl]ethyl}-3-phenyl-5,6-dihydro-1,4-oxathiine-2-carboxamide] | 6.6 | 208 to 209 | 155 | 7.4 | 71.2 |  |  |  |
| NS(=O)(=O)c1ccc(-c2ccc(/C=c3\sc4nc(-c5cccc(Cl)c5)nn4c3=O)o2)cc1 [Compound 17a, 4-(5-{(Z)-[2-(3-chlorophenyl)-6-oxo[1,3]thiazolo[3,2-b][1,2,4]triazol-5(6H)-ylidene]methyl}-2-furyl)enzenesulfonamide] | 7.6 | 312 to 315 | 320 | 44.7 | 2920 |  |  |  |
| COc1ccc(-c2nc3s/c(=C\c4ccc(-c5ccc(S(N)(=O)=O)cc5)o4)c(=O)n3n2)cc1OC [Compound 17b, 4-(5-{(Z)-[2-(3,4-Dimethoxyphenyl)-6-oxo[1,3]thiazolo[3,2 b][1,2,4]triazol-5(6H)-ylidene]methyl} -2-furyl)benzenesulfonamide] | 40.2 | 294 to 295 | 253 | 59.4 | 918 |  |  |  |
